# Laboratory results as given in PMC12186255, “Discovery and Characterization of Small Molecule Inhibitors Targeting Exonuclease 1 for Homologous Recombination-Deficient Cancer Therapy” (ACS Chemical Biology, 2025).
# How the values were obtained:
# EXO1 = target: T1, EXO1 (Homo sapiens, UniProt Q9UQ84); assay: Inhibitor kinetics by FRET-based EXO1 assay (Michaelis-Menten, Lineweaver-Burk); assay type: biochemical; conditions: for V max: Michaelis–Menten plot; for mechanism of EXO1 inhibition: from Michaelis–Menten and Lineweaver–Burk plots
# T1 construct: made in house
# T1 sequence (Q9UQ84 1-846): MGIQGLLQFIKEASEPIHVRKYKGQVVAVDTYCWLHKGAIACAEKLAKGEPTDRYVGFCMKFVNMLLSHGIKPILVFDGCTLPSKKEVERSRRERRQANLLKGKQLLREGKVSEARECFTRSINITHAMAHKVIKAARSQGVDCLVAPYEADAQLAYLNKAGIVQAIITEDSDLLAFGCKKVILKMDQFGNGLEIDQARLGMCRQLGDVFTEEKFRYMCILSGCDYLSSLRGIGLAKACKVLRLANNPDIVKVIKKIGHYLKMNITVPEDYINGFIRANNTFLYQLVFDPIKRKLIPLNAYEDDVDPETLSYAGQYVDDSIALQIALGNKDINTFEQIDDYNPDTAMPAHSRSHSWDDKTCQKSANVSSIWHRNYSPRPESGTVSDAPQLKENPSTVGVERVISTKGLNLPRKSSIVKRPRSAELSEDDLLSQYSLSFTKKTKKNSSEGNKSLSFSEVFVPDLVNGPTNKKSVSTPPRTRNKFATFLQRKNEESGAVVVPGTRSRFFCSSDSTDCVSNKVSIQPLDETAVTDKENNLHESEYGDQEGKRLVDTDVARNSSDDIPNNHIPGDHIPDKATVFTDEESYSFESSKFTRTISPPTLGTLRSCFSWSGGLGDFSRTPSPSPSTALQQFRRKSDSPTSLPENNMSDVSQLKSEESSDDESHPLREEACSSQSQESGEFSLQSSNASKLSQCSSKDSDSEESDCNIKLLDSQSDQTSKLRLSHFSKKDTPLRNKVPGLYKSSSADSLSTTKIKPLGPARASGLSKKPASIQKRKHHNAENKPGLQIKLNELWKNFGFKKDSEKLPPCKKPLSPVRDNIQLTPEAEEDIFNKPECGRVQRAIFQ
# From the text: We then calculated the initial velocity of enzyme activity by calculating the rate within the linear region of the time-dependent RFU.
# The initial velocity of enzyme activity was obtained by calculating the rate of the linear region of the time-dependent RFU.
# MDA-MB-436 cells = assay: γ-H2AX immunofluorescence and Western blot (DSB burden); assay type: cell-based, human; conditions: MDA-MB-436 parental (BRCA1-deficient) cells, 10 or 50 μM, overnight/24 h
# Description: (b) Quantification of the relative γ-H2AX per nucleus from panel a. […] The intensity of the γ-H2AX bands correlates with the level of DSBs observed in the immunofluorescence images in panel a. […] Strong γ-H2AX foci are observed, indicating an increased burden of DSBs. […] (e) Quantification of the relative γ-H2AX per nucleus is depicted in panel d. […] The intensity of the γ-H2AX bands correlates with the level of DSBs observed in the immunofluorescence images in panel d.
# Cells were seeded at a density of 3× 10^5 cells per well in 12-well plates with preplaced coverslips and treated with or without various inhibitor treatments overnight. Cells were then incubated with EdU for 30 min before collection. For PARylation analysis, cells were permeabilized with 0.1% Triton X100, fixed with 4% paraformaldehyde, blocked with the Image-iT FX signal enhancer (Invitrogen), and incubated (1.5 h, RT) with the indicated primary antibodies (PAR/pADPr Antibody; Biotechne). […] The slides were then washed with the PBS buffer, counterstained with DAPI, and analyzed with a fluorescence microscope (Zeiss Observer Z1). […] The slides were then washed with the PBS buffer, incubated with the Click-iT reaction mix for EdU as aforementioned, counterstained with DAPI, and analyzed with a fluorescence microscope (Zeiss Observer Z1).
# U2OS cells = assay: Homologous recombination assay (HR-GFP reporter); assay type: cell-based, human; conditions: I-SceI, 0, 10, 50, 100 μM, 48 h
# Description: Following viral infection, the culture medium was replaced with a fresh medium containing small molecule inhibitors. […] Subsequently, cells were harvested, and GFP-positive frequencies indicative of HR repair events were quantified using a CyAn ADP Analyzer (Beckman Coulter, Inc.). Experiments were performed in triplicate, and data are presented as mean ± standard deviation (S.D.).
# MDA-MB-231 cells = assay: Gel-based phospho-RPA end resection assay; assay type: cell-based, human; conditions: inhibitor overnight then 2 μM CPT 2 h, C5 10 μM
# Description: The levels of RPA32 and phosphorylated RPA32 (S33) were analyzed by Western blotting using antibodies against RPA32 and phosphorylated RPA32 (S33). The total level of tubulin was used as a control. (b) Ratio of P-RPA:RPA levels calculated from panel a. […] U2OS cells carrying a GFP reporter for HR were infected with adenovirus expressing the I-SceI restriction enzyme. […] U2OS cells carrying a GFP reporter for HR were infected with adenovirus expressing the I-SceI restriction enzyme. […] For panels c and d, after 48 h, the cells were harvested, and the GFP-positive cells were analyzed by flow cytometry. Values are the mean ± S.D. of three independent experiments.
# The treated cells were then lysed in the SDS-PAGE sample buffer, and the lysate was separated by SDS-PAGE prior to immobilization on a nitrocellulose membrane and Western blotting. Antibodies against unphosphorylated RPA, S33-P-RPA2, and tubulin were subsequently assayed according to the manufacturer’s recommendations. The ratio of P-RPA/RPA levels were quantified via ImageJ.
# [1] = tested on: subset of the NCI-60 cell line panel plus FG, AsPC1, CaPan2 (31 cell lines); assay: Tumor cell line drug profiling, CellTiter Glo, whole panel; assay type: cell-based; conditions: Homo sapiens, 72 h, read-out: IC50 values across the cell line panel
# Description: We tested the cytotoxicity of representative compounds from the seven EXO1i scaffolds against a subset of the NCI-60 cell line panel along with three additional pancreatic cell lines (FG, AsPC1, and CaPan2). In general, cells were seeded in 384-well tissue culture-treated plates overnight and treated with various concentrations of each hit compound (a serial 3-fold dilution from 50 μM for all tested hits). Each concentration was performed in duplicate. Cell viability was then measured by CellTiter Glo (Promega) after 72 h of treatment.
Compound,V max (EXO1; […] μM F684),mechanism of EXO1 inhibition (EXO1),γ-H2AX levels (unresolved DSBs) (MDA-MB-436 cells),HR frequency (GFP-positive cells) (U2OS cells),CPT-induced P-RPA levels (DNA end resection) (MDA-MB-231 cells),IC50 [1],V max (EXO1; 2 μM C200),"IC50 (EXO1; kinetic assays, read-out: IC50 of each compound, used as fixed inhibitor concentration)"
Cc1cccc(N2CCN(c3ccc(NS(=O)(=O)c4ccccc4)c(C(=O)O)c3)CC2)c1C [F684],114.1 min^–1,uncompetitive mechanism,significant increase,inhibition of HR that increased with dose,significantly reduced,15 to 25 µM,,
COC(=O)c1nc(-c2ccc(OC)cc2)nc(O)c1O [C200],,uncompetitive mechanism,no effect,no significant changes,significantly reduced,> 50 µM,415.5 min^–1,2 µM
